Key:
Format in all cases: in vivo
[1] = tested on: spring barley, HORVS Montoya; test: Tank-mix; post-emergence: crop damage by herbicide with/without safener mefenpyr-diethyl; details: for HER effect + SAF / Reduction [%] / Reduction [Difference]: HER 48 g a.i./ha + mefenpyr-diethyl 100 g a.i./ha; for HER effect: herbicide alone 48 g a.i./ha
How it was run: (§1)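 Visual percent crop damage (0–100 relative to untreated plants) assessed 1–3 weeks post-application. Plants in sandy loam were sprayed at the 1–3-leaf stage with herbicide with or without safener at several rates, water volume 300 l/ha.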

[2] = tested on: spring barley, HORVS Montoya; test: Treatment 1 day before: safener applied one day before herbicide, crop damage
Source text: (§2) Seeds of crops (spring wheat, TRZAS; spring barley, HORVS; maize, ZEAMA) were placed in sandy loam soil in pots of a diameter of 7-8 cm, covered with soil, and cultivated in a greenhouse under good growth conditions until plants were at the 1-3 leaf stage (BBCH 11-13). For split safener and herbicide treatment, first the safener was applied followed by the herbicide treatment on the following day. The safener and herbicides were formulated as WP and sprayed onto the green parts of the plants as an aqueous suspension at an equivalent water application rate of 300 l/ha, with addition of wetting agent and adjuvants (e.g. Mero, 1.5 l/ha; ammonium sulphate, 2 kg/ha). An equivalent set of plants was treated with the herbicides but without the prior safener treatment.
(§3) After application, the test plants were kept in the greenhouse under good growth conditions. 10 and 21 days after treatment (DAT) with the herbicide, % crop damage observed on the treated plants was scored visually in comparison to control plants that had not received any safener or herbicide treatment.

[3] = tested on: spring wheat, TRZAS Triso; test: as above; details: 21 DAT
Source text: as §2, §3

[4] = tested on: spring barley, HORVS Montoya; test: Seed treatment with safener; post-emergence herbicide, crop damage; details: 21 DAT; for HER effect + SAF / Reduction [%] / Reduction [Difference]: mefenpyr-diethyl 0.5 g a.i./kg seed
How it was run: (§4)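 Crop injury was rated visually in % at 10 and 21 days after post-emergence spraying at the 2-leaf stage. The herbicide was a WP in 300 l/ha water plus 1 l/ha MERO. Plants grew from seed either safener-coated at stated g a.i./kg rates via a milk-diluted slurry, or untreated.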

[5] = tested on: spring wheat, TRZAS Triso; test: Tank-mix; post-emergence: crop damage by herbicide with/without safener mefenpyr-diethyl; details: 21 DAT
How it was run: as §1

[6] = tested on: spring wheat, TRZAS Triso; test: Seed treatment with safener; post-emergence herbicide, crop damage; details: 21 DAT; for HER effect + SAF [%] (crop damage) / Reduction [%] / Reduction [Difference]: mefenpyr-diethyl 0.5 g a.i./kg seed; for HER effect [%] (crop damage, herbicide without safener): no safener
How it was run: as §4

[7] = HER 50 g a.i./ha, mefenpyr-diethyl 50 g a.i./ha 1 day before, 10 DAT
[8] = HER 100 g a.i./ha, mefenpyr-diethyl 50 g a.i./ha 1 day before, 21 DAT
[9] = HER 200 g a.i./ha, mefenpyr-diethyl 50 g a.i./ha 1 day before
[10] = HER 12 g a.i./ha post-emergence
[11] = HER 48 g a.i./ha post-emergence
[12] = herbicide alone 48 g a.i./ha post-emergence
[13] = HER 4 g a.i./ha + mefenpyr-diethyl 50 g a.i./ha
[14] = HER 16 g a.i./ha + mefenpyr-diethyl 100 g a.i./ha
[15] = HER 25 g a.i./ha, mefenpyr-diethyl 50 g a.i./ha 1 day before, 21 DAT
[16] = HER 25 g a.i./ha, mefenpyr-diethyl 50 g a.i./ha 1 day before
[17] = HER 50 g a.i./ha, mefenpyr-diethyl 50 g a.i./ha 1 day before
[18] = HER 100 g a.i./ha, mefenpyr-diethyl 100 g a.i./ha 1 day before, 10 DAT
[19] = HER 100 g a.i./ha, mefenpyr-diethyl 100 g a.i./ha 1 day before
[20] = HER 200 g a.i./ha, mefenpyr-diethyl 100 g a.i./ha 1 day before

## CCOC(=O)C1C=CC(NC(=O)C2(C(F)(F)F)CC(c3cc(OC)cc(OC)c3)=NO2)C1 (mixture of isomers) [Example 1.12]
[1]; 10 DAT
  HER effect + SAF: 0%
  Reduction [%]: 100%
  Reduction [Difference]: 60
  HER effect: 60%
[2]; [7]
  HER effect + SAF: 20%
  Reduction [%]: 64%
  Reduction [Difference]: 35
[2]; [8]
  HER effect + SAF: 50%
  Reduction [%]: 29%
  Reduction [Difference]: 20
[2]; herbicide alone 50 g a.i./ha, 10 DAT
  HER effect: 55%
[2]; herbicide alone 100 g a.i./ha, 21 DAT
  HER effect: 70%
[3]; [9]
  HER effect + SAF: 20%
  Reduction [%]: 50%
  Reduction [Difference]: 20
[3]; herbicide alone 200 g a.i./ha
  HER effect: 40%
[4]; [10]
  HER effect + SAF: 0%
  Reduction [%]: 100%
  Reduction [Difference]: 20
[4]; [11]
  HER effect + SAF: 20%
  Reduction [%]: 60%
  Reduction [Difference]: 30
[4]; herbicide alone 12 g a.i./ha post-emergence
  HER effect: 20%
[4]; [12]
  HER effect: 50%

## CC1(C(=O)NC2C=CC(C(=O)OCCCl)C2)CC(c2cc(F)cc(F)c2)=NO1 (mixture of isomers) [Example 1.47]
[1]; 21 DAT
  HER effect + SAF: 60%
  Reduction [%]: 29%
  Reduction [Difference]: 25
  HER effect: 85%
[5]; [13]
  HER effect + SAF: 10%
  Reduction [%]: 67%
  Reduction [Difference]: 20
[5]; [14]
  HER effect + SAF: 20%
  Reduction [%]: 75%
  Reduction [Difference]: 60
[5]; herbicide alone 4 g a.i./ha
  HER effect: 30%
[5]; herbicide alone 16 g a.i./ha
  HER effect: 80%
[2]; [15]
  HER effect + SAF: 40%
  Reduction [%]: 33%
  Reduction [Difference]: 20
[2]; herbicide alone 25 g a.i./ha, 21 DAT
  HER effect: 60%
[3]; [16]
  HER effect + SAF: 35%
  Reduction [%]: 53%
  Reduction [Difference]: 40
[3]; [17]
  HER effect + SAF: 60%
  Reduction [%]: 25%
  Reduction [Difference]: 20
[3]; herbicide alone 25 g a.i./ha
  HER effect: 75%
[3]; herbicide alone 50 g a.i./ha
  HER effect: 80%
[4]; [11]
  HER effect + SAF: 20%
  Reduction [%]: 76%
  Reduction [Difference]: 65
[4]; [12]
  HER effect: 85%
[6]; HER dose 4 g a.i./ha
  HER effect + SAF [%] (crop damage): 0%
  Reduction [%]: 100%
  Reduction [Difference]: 30
  HER effect [%] (crop damage, herbicide without safener): 30%
[6]; HER dose 16 g a.i./ha
  HER effect + SAF [%] (crop damage): 10%
  Reduction [%]: 88%
  Reduction [Difference]: 70
  HER effect [%] (crop damage, herbicide without safener): 80%

## CCOC(=O)C1C=CC(NC(=O)C2(C(F)(F)F)CC(c3ccccc3)=NO2)C1 (stereo not drawn) [Example 1.9]
[2]; [18]
  HER effect + SAF: 20%
  Reduction [%]: 50%
  Reduction [Difference]: 20
[2]; herbicide alone 100 g a.i./ha, 10 DAT
  HER effect: 40%
[3]; [19]
  HER effect + SAF: 20%
  Reduction [%]: 67%
  Reduction [Difference]: 40
[3]; [20]
  HER effect + SAF: 25%
  Reduction [%]: 64%
  Reduction [Difference]: 45
[3]; herbicide alone 100 g a.i./ha
  HER effect: 60%
[3]; herbicide alone 200 g a.i./ha
  HER effect: 70%

Source: patent US20230200390A1, “SELECTIVE HERBICIDES BASED ON SUBSTITUTED ISOXAZOLIN CARBOXAMIDES AND MEFENPYR-DIETHYL” (BAYER AKTIENGESELLSCHAFT, priority 2020, published 2023)
